Data: paper PMC11118710, “GLP-1 and Its Derived Peptides Mediate Pain Relief Through Direct TRPV1 Inhibition Without Affecting Thermoregulation” (Research Square, 2024)

Assays:
[1] = acute intraperitoneal glucose tolerance test (IPGTT), blood glucose; type: in vivo, mouse (wild-type); settings: 10 μg/kg i.p. 15 min before glucose 2 g/kg i.p.
Experimental: Licking time was recorded for 5 min after CAP injection in each group. Mechanical allodynia and thermal hyperalgesia were evaluated in separate experiments in a time-dependent manner. Mechanical allodynia was assessed using von Frey filaments (NC12775–99; North Coast Medical, CA). The 50% PWT was calculated using the up-down method. Thermal hyperalgesia was assessed by recording PWL using the Hargreaves radiant heat apparatus (IITC Life Sciences, Woodland Hills, CA). A cutoff value of 20 s was used to prevent tissue damage. […] The acute IPGTT was performed in mice aged 8 weeks. Baseline blood glucose levels were measured and mice were intraperitoneally injected with 200 μL of vehicle, exendin 20–29 (10 μg/kg), and exendin-4 (10 μg/kg) in wild-type mice (n = 6). After 15 min, the mice were challenged with glucose (2.0 g/kg body weight). Blood glucose levels were measured using an Accu-Chek Performa glucometer (Roche, Mannheim, Germany).

rat TRPV1 = assay: Ca2+ imaging, CAP-induced responses in HEK293T cells transfected with rat TRPV1; type: cell-based; settings: no GLP-1R expression, 100 nM peptide, 100 nM CAP, vs control CAP
Experimental: DRG cells were then grown in a neurobasal-defined medium supplemented with 10% fetal bovine serum (FBS; Gibco, Waltham, MA), 2% B27 supplement (Invitrogen, Carlsbad, CA), and 1% penicillin/streptomycin for 24 h before experiments. Human TRPV1 (hTRPV1)-expressing CHO K1 cells were cultured using Dulbecco’s modified Eagle’s medium (DMEM) containing 10% FBS, 1% penicillin/streptomycin, and 800 μg/mL geneticin in an incubator with 5% CO2 at 37°C. HEK293 and HEK293T cells were also cultured in the same DMEM but without geneticin. Rat TRPV1 plasmids were labeled with a green fluorescent protein to indicate subsequent calcium imaging. cDNA constructs of rat TRPV1 were transiently transfected into cells using Lipofectamine 2000 (Invitrogen). Ca^2+ imaging was performed one day after transient transfection.
At room temperature, Ca^2+ imaging was conducted in mouse DRG, HEK293T, and hTRPV1-expressing CHO K1 cells. Cells on poly-D-lysine-coated coverslips were loaded with 2 μM Fura-2 AM (Thermo Fisher Scientific, Waltham, MA) at 37°C for 40 min in DMEM. The cells were then rinsed three times with the medium and incubated for 30 min, following which they were placed on the stage of an inverted microscope (BX51W1; Olympus, Tokyo, Japan) and continuously superfused at a flow speed of 1 mL/min with a bath solution containing 140 mM NaCl, 5 mM KCl, 1 mM CaCl2, 2 mM MgCl2, 10 mM HEPES, and 10 mM glucose, adjusted to pH 7.4 with NaOH. Using illumination with a 175-W xenon arc lamp, excitation wavelengths (340/380 nm) were selected using a Lambda DG-4 monochromator wavelength changer (Shutter Instrument, Novato, CA). The fluorescence 340/380 ratio was measured using digital video microfluorometry with an intensified camera (OptiMOS; QImaging, Surrey, Canada) coupled to the microscope. Data were analyzed using SlideBook 6 (Intelligent Imaging Innovations, Denver, CO). At the end of the experiment, cells were identified based on their response to high concentrations of KCl.

[2] = test system: TRPV1 (mouse DRG neurons); assay: Ca2+ imaging, CAP-induced responses in mouse DRG neurons; type: cell-based; settings: 100 nM CAP, Fura-2 340/380 ratio
Experimental: Cells were mechanically dissociated by gentle pipetting and placed on glass coverslips coated with poly-D-lysine.
At room temperature, Ca^2+ imaging was conducted in mouse DRG, HEK293T, and hTRPV1-expressing CHO K1 cells. […] The cells were then rinsed three times with the medium and incubated for 30 min, following which they were placed on the stage of an inverted microscope (BX51W1; Olympus, Tokyo, Japan) and continuously superfused at a flow speed of 1 mL/min with a bath solution containing 140 mM NaCl, 5 mM KCl, 1 mM CaCl2, 2 mM MgCl2, 10 mM HEPES, and 10 mM glucose, adjusted to pH 7.4 with NaOH. […] The fluorescence 340/380 ratio was measured using digital video microfluorometry with an intensified camera (OptiMOS; QImaging, Surrey, Canada) coupled to the microscope. Data were analyzed using SlideBook 6 (Intelligent Imaging Innovations, Denver, CO). At the end of the experiment, cells were identified based on their response to high concentrations of KCl.

[3] = 10 μg/kg; cited from earlier work
Experimental: To determine the potential effects of exendin 20–29 on GLP-1R and glucose regulation, we performed an acute intraperitoneal glucose tolerance test (IPGTT) in 8-week-old mice. […] After 15 min of exendin 20–29 or exendin-4 administration, a glucose solution (2 g/kg) was intraperitoneally injected (at 0 min; Fig. 8f).

exendin-4
blood glucose level in IPGTT [1]: significantly lowered the blood glucose level from 15 to 120 min | CAP-induced TRPV1 calcium responses (rat TRPV1): ****p <.0001, compared with each control CAP | CAP-induced Ca2+ responses, significance ([2]; vs control CAP): ****p<.0001, compared with control CAP | reduction of CAP-induced Ca2+ responses ([2]; 100 nM peptide pretreatment, room temperature): 72.2% | blood glucose levels [3]: lowers blood glucose levels
